pIC50: −log10 of the molar value. Read-outs that look alike come from different tables or passages of the source.
How the values were obtained:
HIF-1α = target: T1, HIF-1α (Homo sapiens, UniProt Q16665); experiment: Analysis of HIF-1α protein expression (Western blot) in ARPE-19 cells under mixed hypoxic condition; assay type: cell-based; conditions: concentration range at which HIF-1α expression is reduced by 50% vs untreated control
T1 construct: endogenous in cells; host or cells: ARPE-19 (ATCC CRL-2302)
Protocol: (§1) ARPE-19 cells (Human retinal pigment epithelial cells, ATCC CRL-2302) were cultured in DMEM/F12 (LM002-08, Welgene) medium containing 10% fetal bovine serum (FBS, 16000-044, Gibco) in an incubator at 37°C with 5% carbon dioxide. When the cells grew sufficiently, they were cultured in experimental culture dishes for protein isolation and medium supernatant acquisition.
(§2) Cells were detached from the culture dish using TrypLE™ Express (Gibco). After centrifugation at 1000 rpm for 3 minutes, the supernatant was removed. The cells were counted and seeded into new culture dishes. Normoxic conditions were maintained by culturing the cells in a 37°C incubator with 5% carbon dioxide, and hypoxic conditions were maintained by culturing the cells in a hypoxic incubator with 1% oxygen, 5% carbon dioxide, and 94% nitrogen gas.
In a disease of macular degeneration, hypoxia is a very important condition, and since the expression of downstream genes is regulated by HIF-1α, a transcription factor that is stabilized in hypoxic conditions, the following experiment was conducted to confirm this.
Mixed hypoxic condition was used for HIF-1α stability experiments, in which hypoxia was induced with 1% oxygen and the stability of HIF-1α was enhanced by treatment with cobalt chloride (CoCl2).
The compounds of each Example were diluted to 0.1 nM, 1 nM, 3 nM, 10 nM, 30 nM, 100 nM, 300 nM, 1 µM, and 10 µM in DMEM/F12 medium without fetal bovine serum, pretreated for 16 hours or 2 hours, and cultured for 1 hour or 24 hours in a mixed hypoxic condition. The cell medium was discarded, and protein lysates were obtained by rapidly treating with protein lysis buffer (RIPA Lysis and Extraction buffer, Thermo Fisher Scientific). LDS (4X Bolt ™ LDS Sample buffer) and reducing agent (10X Bolt ™ Sample Reducing Agent) were added together to the protein lysate, and heated at 70°C for 10 minutes. The lysate was separated by electrophoresis on a 4-12% Bis-Tris gel, transferred to a PVDF membrane, and blocked with 3% BSA (Albumin, Bovine, Fraction V, MPbio). The membrane was incubated overnight at 4°C with a mixture of anti-HIF-1α (ab179483, abcam) and anti-b-actin (MA515739, Invitrogen) antibodies at a ratio of 1:4000. The following day, the membrane was treated with a peroxidase-conjugated secondary antibody for 1 hour at room temperature, and the target protein was expressed using an ECL solution (Clarity ™ Western ECL substrate, Bio-rad) and quantified.
Based on the results of the expression level of HIF-1α in cells treated with compounds diluted from 10 µM to 0.1 nM, the concentration range of the compound at which the expression level of HIF-1α was reduced by 50% or less compared to the untreated control group was derived.

VEGF = experiment: Evaluation of VEGF protein secretion level (Human VEGF ELISA) in ARPE-19 cell medium under hypoxic conditions; assay type: cell-based
Protocol: as §1, §2
The expression of the downstream gene, angiogenesis inducer VEGF, is regulated by HIF-1α, a major transcription factor under hypoxic conditions, and the level of secreted VEGF protein can be quantitatively confirmed through ELISA (Enzyme Linked Immunosorbent Assay, Human VEGF Quantikine ELISA Kit, R&D systems). For this purpose, the following experiment was conducted.
The compounds of each Example were diluted to 0.1 nM, 1 nM, 3 nM, 10 nM, 30 nM, 100 nM, 300 nM, 1 µM and 10 µM in DMEM/F12 medium containing 1% fetal bovine serum, pretreated for 2 hours, and cultured for 24 hours under hypoxic conditions to obtain the cell medium supernatant. The supernatant was centrifuged at 1000 rpm for 3 minutes, and a specific amount was treated with a VEGF ELISA assay kit and the absorbance value was measured at 450 nm to quantitatively confirm the level of VEGF protein (see Table 1 below).
Based on the results of secreted VEGF protein expression levels in cell media treated with compounds diluted at concentrations ranging from 10 µM to 0.1 nM, the concentration range of the compound at which the secreted VEGF protein level was reduced by 50% or less compared to the untreated control group was derived.

[1] = mixed hypoxic condition (1% oxygen + CoCl2) for 1 hour, read-out: IC50 HIF-1α Hypoxia (1 hour)
[2] = ARPE-19 cells, pretreated 2 hours, 24 hours hypoxic conditions, secreted VEGF in medium supernatant by ELISA, concentration range reducing VEGF by 50% vs untreated control, read-out: IC50 VEGF
[3] = ARPE-19 cells, pretreated 2 hours, 24 hours hypoxic conditions, ELISA, read-out: concentration at which the secreted VEGF protein level was suppressed to less than 50%
[4] = Experimental Example 2 (HIF-1α Western blot), read-out: concentration at which the expression level of VEGF was suppressed to less than 50%

T1 sequence (Q16665 whole entry): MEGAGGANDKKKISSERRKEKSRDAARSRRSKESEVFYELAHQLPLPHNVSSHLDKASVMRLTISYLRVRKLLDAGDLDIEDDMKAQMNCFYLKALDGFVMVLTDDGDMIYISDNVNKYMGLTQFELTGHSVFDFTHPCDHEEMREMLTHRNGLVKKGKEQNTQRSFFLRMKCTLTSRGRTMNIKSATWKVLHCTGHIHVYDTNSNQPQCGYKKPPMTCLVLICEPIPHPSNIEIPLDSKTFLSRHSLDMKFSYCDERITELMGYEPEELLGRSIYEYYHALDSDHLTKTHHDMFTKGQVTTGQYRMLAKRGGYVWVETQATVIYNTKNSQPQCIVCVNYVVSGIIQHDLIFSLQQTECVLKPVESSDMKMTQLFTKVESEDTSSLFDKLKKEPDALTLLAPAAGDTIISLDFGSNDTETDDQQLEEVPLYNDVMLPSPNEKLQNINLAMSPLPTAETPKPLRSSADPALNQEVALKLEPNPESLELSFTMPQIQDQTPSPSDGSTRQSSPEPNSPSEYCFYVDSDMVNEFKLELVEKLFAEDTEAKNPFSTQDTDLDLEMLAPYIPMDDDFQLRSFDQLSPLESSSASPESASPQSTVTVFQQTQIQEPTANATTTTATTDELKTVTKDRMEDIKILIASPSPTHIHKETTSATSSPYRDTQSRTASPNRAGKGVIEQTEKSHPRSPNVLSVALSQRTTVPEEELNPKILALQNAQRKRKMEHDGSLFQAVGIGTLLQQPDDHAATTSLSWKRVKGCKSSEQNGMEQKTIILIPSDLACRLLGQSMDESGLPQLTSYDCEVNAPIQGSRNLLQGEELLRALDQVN

Compound | DC50 (HIF-1α; [1]) | pIC50 (VEGF; [2]) | pIC50 (VEGF; [3]) | pIC50 (VEGF; [4]) | DC50 (HIF-1α; values marked * in the table, mixed hypoxic condition (1% oxygen + CoCl2) for 24 hours, read-out: IC50 HIF-1α, Hypoxia(24h))
O=C(NCc1cc(F)cc(Nc2ccncc2)c1)c1ncnc2nc(C3CCCC3)[nH]c12 [Example 16, 8-Cyclopentyl-N-(3-fluoro-5-(pyridin-4-ylamino)benzyl)-7H-purine-6-carboxamide] | < 100 nM | 6.00 to 7.00 | – | – | –
O=C(NCc1cc(F)cc(Nc2cccc(C(F)(F)F)c2)c1)c1ncnc2nc(C3CCCC3)[nH]c12 [Example 17, 8-Cyclopentyl-N-(3-fluoro-5-((3-(trifluoromethyl)phenyl)amino)benzyl)-7H-purine-6-carboxamide] | < 100 nM | 6.00 to 7.00 | – | – | –
CN(C)c1ccc(Nc2cc(F)cc(CNC(=O)c3ncnc4nc(C5CCCC5)[nH]c34)c2)cc1 [Example 18, 8-Cyclopentyl-N-(3-((4-(dimethylamino)phenyl)amino)-5-fluorobenzyl)-7H-purine-6-carboxamide] | < 100 nM | 6.00 to 7.00 | – | – | –
CS(=O)(=O)c1ccc(Nc2cc(F)cc(CNC(=O)c3ncnc4nc(C5CCCC5)[nH]c34)c2)cc1 [Example 19, 8-Cyclopentyl-N-(3-fluoro-5-((4-(methylsulfonyl)phenyl)amino)benzyl)-7H-purine-6-carboxamide] | < 100 nM | 6.00 to 7.00 | – | – | –
O=C(NCc1cc(F)cc(Nc2ccc(Cl)cc2F)c1)c1ncnc2nc(C3CCCC3)[nH]c12 [Example 20, N-(3-((4-chloro-2-fluorophenyl)amino)-5-fluorobenzyl)-8-cyclopentyl-7H-purine-6-carboxamide] | < 100 nM | 6.00 to 7.00 | – | – | –
O=C(NCc1cc(F)cc(Nc2ccc(F)cc2)c1)c1ncnc2nc(C3CCCC3)[nH]c12 [Example 21, 8-Cyclopentyl-N-(3-fluoro-5-((4-fluorophenyl)amino)benzyl)-7H-purine-6-carboxamide] | < 100 nM | 6.00 to 7.00 | – | – | –
N#Cc1cccc(-n2cc(-c3cc(F)cc(CNC(=O)c4ncnc5nc(C6CCCC6)[nH]c45)c3)cn2)c1 [Example 23, N-(3-(1-(3-Cyanophenyl)-1H-pyrazol-4-yl)-5-fluorobenzyl)-8-cyclopentyl-7H-purine-6-carboxamide] | < 100 nM | 6.00 to 7.00 | – | – | –
CS(=O)(=O)c1ccc(Cn2cc(-c3cc(F)cc(CNC(=O)c4ncnc5nc(C6CCCC6)[nH]c45)c3)cn2)cc1 [Example 24, 8-Cyclopentyl-N-(3-fluoro-5-(1-(4-(methylsulfonyl)benzyl)-1H-pyrazol-4-yl)benzyl)-7H-purine-6-carboxamide] | < 100 nM | 6.00 to 7.00 | – | – | –
COc1ccc(-n2cc(-c3cc(F)cc(CNC(=O)c4ncnc5nc(C6CCCC6)[nH]c45)c3)cn2)cc1 [Example 25, 8-Cyclopentyl-N-(3-fluoro-5-(1-(4-methoxyphenyl)-1H-pyrazol-4-yl)benzyl)-7H-purine-6-carboxamide] | < 100 nM | 6.00 to 7.00 | – | – | –
O=C(NCc1cc(F)cc(-c2cnn(-c3ccc(C(F)(F)F)cc3)c2)c1)c1ncnc2nc(C3CCCC3)[nH]c12 [Example 26, 8-Cyclopentyl-N-(3-fluoro-5-(1-(4-(trifluoromethyl)phenyl)-1H-pyrazol-4-yl)benzyl)-7H-purine-6-carboxamide] | < 100 nM | 6.00 to 7.00 | – | – | –
O=C(NCc1cc(F)cc(-c2cnn(-c3ccc(F)cc3)c2)c1)c1ncnc2nc(C3CCCC3)[nH]c12 [Example 27, 8-Cyclopentyl-N-(3-fluoro-5-(1-(4-fluorophenyl)-1H-pyrazol-4-yl)benzyl)-7H-purine-6-carboxamide] | < 100 nM | 6.00 to 7.00 | – | – | –
CS(=O)(=O)c1ccc(-n2cc(-c3cc(F)cc(CNC(=O)c4ncnc5nc(C6CCCC6)[nH]c45)c3)cn2)cc1 [Example 28, 8-Cyclopentyl-N-(3-fluoro-5-(1-(4-(methylsulfonyl)phenyl)-1H-pyrazol-4-yl)benzyl)-7H-purine-6-carboxamide] | < 100 nM | 6.00 to 7.00 | – | – | –
O=C(NCc1cc(F)cc(-c2cnn(Cc3cccc(C(F)(F)F)c3)c2)c1)c1ncnc2nc(C3CCCC3)[nH]c12 [Example 29, 8-Cyclopentyl-N-(3-fluoro-5-(1-(3-(trifluoromethyl)benzyl)-1H-pyrazol-4-yl)benzyl)-7H-purine-6-carboxamide] | < 100 nM | 6.00 to 7.00 | – | – | –
O=C(NCc1cc(F)cc(-c2cnn(-c3ccccn3)c2)c1)c1ncnc2nc(C3CCCC3)[nH]c12 [Example 30, 8-Cyclopentyl-N-(3-fluoro-5-(1-(pyridin-2-yl)-1H-pyrazol-4-yl)benzyl)-7H-purine-6-carboxamide] | < 100 nM | 6.00 to 7.00 | – | – | –
O=C(NCc1cc(F)cc(-c2cnn(-c3cccnc3)c2)c1)c1ncnc2nc(C3CCCC3)[nH]c12 [Example 31, 8-Cyclopentyl-N-(3-fluoro-5-(1-(pyridin-3-yl)-1H-pyrazol-4-yl)benzyl)-7H-purine-6-carboxamide] | < 100 nM | > 7.00 | > 7.00 | > 7.00 | –
O=C(NCc1cc(F)cc(-c2cnn(-c3cncnc3)c2)c1)c1ncnc2nc(C3CCCC3)[nH]c12 [Example 32, 8-Cyclopentyl-N-(3-fluoro-5-(1-(pyrimidin-5-yl)-1H-pyrazol-4-yl)benzyl)-7H-purine-6-carboxamide] | < 100 nM | 6.00 to 7.00 | – | – | –
COc1ccccc1Nc1cc(F)cc(CNC(=O)c2ncnc3nc(C4CCCC4)[nH]c23)c1 [Example 33, 8-Cyclopentyl-N-(3-fluoro-5-((2-methoxyphenyl)amino)benzyl)-7H-purine-6-carboxamide] | < 100 nM | 6.00 to 7.00 | – | – | –
COc1cccc(Nc2cc(F)cc(CNC(=O)c3ncnc4nc(C5CCCC5)[nH]c34)c2)c1 [Example 34, 8-Cyclopentyl-N-(3-fluoro-5-((3-methoxyphenyl)amino)benzyl)-7H-purine-6-carboxamide] | < 100 nM | 6.00 to 7.00 | – | – | –
COc1ccc(Nc2cc(F)cc(CNC(=O)c3ncnc4nc(C5CCCC5)[nH]c34)c2)cc1 [Example 35, 8-Cyclopentyl-N-(3-fluoro-5-((4-methoxyphenyl)amino)benzyl)-7H-purine-6-carboxamide] | < 100 nM | 6.00 to 7.00 | – | – | –
COc1ccc(Nc2cc(F)cc(CNC(=O)c3ncnc4nc(C5CCCC5)n(C)c34)c2)cc1 [Example 36, 8-Cyclopentyl-N-(3-fluoro-5-((4-methoxyphenyl)amino)benzyl)-7-methyl-7H-purine-6-carboxamide] | < 100 nM | 6.00 to 7.00 | – | – | –
NC(=O)c1cccc(-n2cc(-c3cc(F)cc(CNC(=O)c4ncnc5nc(C6CCCC6)[nH]c45)c3)cn2)c1 [Example 37, N-(3-(1-(3-carbamoylphenyl)-1H-pyrazol-4-yl)-5-fluorobenzyl)-8-cyclopentyl-7H-purine-6-carboxamide] | – | > 7.00 | > 7.00 | > 7.00 | < 100 nM
O=C(NCc1cc(F)cc(-c2cnsc2)c1)c1ncnc2nc(C3CCCC3)[nH]c12 [Example 38, 8-Cyclopentyl-N-(3-fluoro-5-(isothiazol-4-yl)benzyl)-7H-purine-6-carboxamide] | < 100 nM | 6.00 to 7.00 | – | – | –
